Laboratory results taken from patent US9115150B2, “Camptothecin compound containing stable 7-membered lactone ring, preparation method and use” (EAST CHINA NORMAL UNIVERSITY, priority 2012, dated 2015).

Key:
A549 cells = assay: Anti-tumor (cytotoxic) activity assay, SRB method, A549; format: cell-based; details: Homo sapiens, 72 h at 37° C., read-out: growth inhibition activity on A549 cells, IC50
Experimental: (§1) All the cytotoxic activity assays of the compounds were conducted on corresponding tumor cell lines. There were 6000˜10000 tumor cells per 100 μL of culture medium, and they were placed in a 96-well plate (Falcon, Calif.). The tumor cells were divided into 3 parts, and treated with drugs having gradient concentrations. The tumor cells were cultivated for 72 h at 37° C., and assayed using SRB method. The concentration that 50% of the growth of the tumor cells growth was inhibited, i.e., IC50, was calculated from dosage-activity curves.

HCT-116 cells = assay: Anti-tumor (cytotoxic) activity assay, SRB method, HCT-116; format: cell-based; details: Homo sapiens, HCT-116 tumor cells, 72 h at 37° C., read-out: growth inhibition activity on HCT-116 cells, IC50
Experimental: as §1

Row | Structure (SMILES) | IC50 (A549 cells) | IC50 (HCT-116 cells)
1 | CC[C@]1(O)c2cc3n(c(=O)c2COC(=O)[C@@H]1O)Cc1cc2cc4c(cc2nc1-3)OCO4 [Ysb-6, (20S,20aR)-9,10-(1,3-dioxolane)-20a-hydroxylhomocamptothecin] | 3.1 ± 1.6 nM | 3.1 ± 0.7 nM
2 | CC[C@]1(O)c2cc3n(c(=O)c2COC(=O)[C@@H]1O)Cc1cc2cc4c(cc2nc1-3)OCCO4 [Ysb-8] | 2.9 ± 1.3 nM | 3.4 ± 1.2 nM
3 | CCc1c2c(nc3ccc(O)cc13)-c1cc3c(c(=O)n1C2)COC(=O)[C@H](OC(C)=O)[C@]3(O)CC [Ysb-9, (20S,20aR)-10-hydroxyl-7-ethyl-20a-acetoxy homocamptothecin] | 226 ± 15.8 nM | 133 ± 18.7 nM
4 | CCc1c2c(nc3ccc(O)cc13)-c1cc3c(c(=O)n1C2)COC(=O)[C@H](O)[C@]3(O)CC [Ysb-10, (20S,20aR)-10-hydroxyl-7-ethyl-20a-hydroxyl homocamptothecin] | 30.3 ± 18.4 nM | 366 ± 213 nM
5 | CCc1c2c(nc3ccc(O)cc13)-c1cc3c(c(=O)n1C2)COC(=O)[C@]3(O)CC [SN-38, reference compound] | 30.4 ± 11.5 nM | 40.8 ± 5.8 nM
6 | CC[C@]1(O)c2cc3n(c(=O)c2COC(=O)[C@@H]1OC(C)=O)Cc1cc2ccccc2nc1-3 [Ysb-1, (20S,20aR)-20a-acetoxyhomocamptothecin] | 49.2 ± 34.6 nM | 14.2 ± 6.1 nM
7 | CC[C@@]1(O)C(=O)OCc2c1cc1n(c2=O)Cc2cc3ccccc3nc2-1 [CPT, Camptothecin] | 33.8 ± 13.9 nM | 22.9 ± 12 nM
8 | CC[C@]1(O)c2cc3n(c(=O)c2COC(=O)[C@@H]1OC(C)=O)Cc1cc2cc4c(cc2nc1-3)OCO4 [Ysb-5] | 1.2 ± 0.7 nM | 2.1 ± 0.3 nM
9 | CC[C@]1(O)c2cc3n(c(=O)c2COC(=O)[C@@H]1OC(C)=O)Cc1cc2cc(OC)ccc2nc1-3 [Ysb-3, (20S,20aR)-10-methoxy-20a-acetoxyhomocamptothecin] | 4.7 ± 1.1 nM | 4.4 ± 1 nM
10 | CC[C@]1(O)c2cc3n(c(=O)c2COC(=O)[C@@H]1OC(C)=O)Cc1cc2cc4c(cc2nc1-3)OCCO4 [Ysb-7] | 4.6 ± 2.9 nM | 4.9 ± 4.1 nM
11 | CC[C@]1(O)c2cc3n(c(=O)c2COC(=O)[C@@H]1O)Cc1cc2ccccc2nc1-3 [Ysb-2, (20S,20aR)-20a-hydroxylhomocamptothecin] | 16.8 ± 4.2 nM | 49.3 ± 15 nM
12 | CC[C@]1(O)c2cc3n(c(=O)c2COC(=O)[C@@H]1O)Cc1cc2cc(OC)ccc2nc1-3 [Ysb-4, (20S,20aR)-10-methoxy-20a-hydroxylhomocamptothecin] | 4.8 ± 3.6 nM | 10.6 ± 6.2 nM
13 | CC[C@@]1(O)C(=O)OCc2c1cc1n(c2=O)Cc2cc3cc(O)ccc3nc2-1 [Compound 10-HCPT, 10-hydroxylcamptothecin, reference compound] | 33.6 ± 17.8 nM | 31.2 ± 8.2 nM
